Values quoted from earlier work, collected in US20240383928A1, “PRODUCTION OF DIORGANOTIN DIHALIDES” (priority 2021, published 2024).

System: mice
Conditions: intraperitoneal injection

[CH3][Sn]([CH3])([CH3])[CH3] [Sn(CH3)4, tetramethyl tin]
2-hr. LD50: 140 mg/kg
24-hr. LD50: 18 mg/kg

CC[N+](CC)(CC)CC.[Cl-] [N(C2H5)4Cl]
LD50 (time not stated, all animals that survived for 25 minutes recovered): 60 mg/kg

C[CH2][Sn]([CH2]C)([CH2]C)[CH2]C [Sn(C2H5)4]
2-hr. LD50: 660 mg/kg
24-hr. LD50: 130 mg/kg
